Data published in patent publication US5106407A, “Iodones and methods for antimicrobial use” (priority 1989, dated 1992).
Values after ≈ are worked out from the molar mass of the structure shown. Read-outs that look alike come from different tables or passages of the source.

Experiments:
[1] = system: Enterobacter aerogenes; assay: minimum inhibitory concentration (MIC), agar dilution; assay type: cell-based; conditions: for MIC: Klebsiella aerogenes
Procedure: (§1) The minimum inhibitory concentration (MIC) for the compound of Example 19, i.e., (2-nitrophenyl)-iodonium 2,2-dimethyl-4,6-dioxo-1,3-dioxan-5-ylide was determined for 9 bacteria (using nutrient agar) and 5 yeast and fungi (using malt yeast agar). A one percent solution of this test compound (i.e., the compound of Example 19) was prepared in a mixture of acetone-water. Nutrient agar was prepared at pH 6.8 using deionized water according to standard Difco procedures. Malt yeast agar was prepared by adding 3 g Bacto yeast extract and 42 g Bacto Malt agar per liter of deionized water. The agar (nutrient agar when testing with bacteria and malt yeast agar when testing with yeast and fungi) was dispensed in 30 mL aliquots into 25×200 millimeter (mm) test tubes, capped and autoclaved for 15 min at 115° C. The test tubes containing the agar were cooled in a water bath until the temperature of the agar was 48° C. and then an appropriate amount of the one percent solution of the test compound was added (except in the controls where no test compound was added with the acetone-water) to the respective test tubes so that final concentrations of 500, 250, 100, 50, 25, 10, 5, 2.5, 1.0 and 0 parts per million (ppm) of the test compound in the agar were obtained. The agar solutions were each mixed and poured into individual petri plates so that each petri plate contained agar having a known concentration of test compound dispersed therein. After drying for 24 hr, the petri plates were inoculated with bacteria when the petri plates contained nutrient broth agar or with fungi and yeast when the petri plates contained malt yeast agar.
(§2) The inoculation with bacteria was accomplished using the following procedure. Twenty-four hr cultures of each of the bacteria were prepared by incubating the respective bacteria in tubes containing nutrient broth for 24 hr at 30° C. in a shaker. Dilutions of each of the 24 hr cultures were made so that 9 separate suspensions (one for each of the 9 test bacteria) were made, each containing about 10^8 colony forming units (CFU) per mL of suspension of a particular bacteria. Aliquots of 0.3 mL of each of the above suspensions were used to fill individual wells of a Steer's Replicator. For each microbial suspension, 0.3 mL was used to fill 3 wells (i.e., 3 wells of 0.3 mL each) so that for the 9 different bacteria 27 wells were filled. The Steer's Replicator was then used to inoculate the petri plates.
(§3) The petri plates were incubated at 30° C. for 48 hr and then read to determine if the test compound (i.e., the compound of Example 19) which was incorporated into the agar prevented growth of the respective bacteria. The minimum inhibitory concentration (MIC) for each bacteria was defined as the lowest concentration of the test compound which prevented growth of that bacteria.
(§4) In a similar procedure, the MIC (in ppm) of the compound of Example 11 (i.e., (2-nitrophenyl)-iodonium 2,6-dioxocyclohexylide) for various organisms was determined at an acid pH (about 6.8) and at an alkaline pH (about 8.2).
(§5) Using similar procedures, the MIC's (in ppm) of various compounds of Formula I and/or Formula II were determined for the organisms Enterobacter aerogenes and Bacillus subtilis in a neutral solution (pH about 6.8) and in an alkaline medium (pH about 8.2).

[2] = system: Bacillus subtilis; assay: as above; assay type: cell-based; conditions: for MIC: Bacillus subtilis
Procedure: as §1, §2, §3, §4, §5

[3] = alkaline growth medium (pH = 8.2), read-out: MIC (AEA)
[4] = neutral growth medium (pH = 6.8), read-out: MIC (NEA)
[5] = alkaline growth medium (pH = 8.2), read-out: MIC (ABS)
[6] = neutral growth medium (pH = 6.8), read-out: MIC (NBS)
[7] = alkaline growth medium (pH = 8.2)
[8] = neutral growth medium (pH = 6.8)

O=C1CCC(=O)[C-]1[I+]c1ccccc1[N+](=O)[O-] [Example 10, (2-Nitrophenyl)-iodonium 2,5-dioxocyclopentyl-1-ylide]
MIC [1, 3]: > 500 µg/mL | MIC [1, 4]: ≤ 10 µg/mL | MIC [2, 5]: > 500 µg/mL | MIC [2, 6]: 25 µg/mL (≈ 72.4 µM)

CC1(C)CC(=O)[C-]([I+]c2ccccc2S(C)(=O)=O)C(=O)C1 [Example 12, ((2-Methylsulfonyl)phenyl)-iodonium 4,4-dimethyl-2,6-dioxocyclohexan-1-ylide]
MIC [1, 3]: > 500 µg/mL | MIC [1, 4]: > 500 µg/mL | MIC [2, 5]: 100 µg/mL (≈ 238 µM) | MIC [2, 6]: 250 µg/mL (≈ 595 µM)

CC1(C)CC(=O)[C-]([I+]c2ccccc2[N+](=O)[O-])C(=O)C1 [Example 14, (2-Nitrophenyl)-iodonium 4,4-dimethyl-2,6-dioxocyclohexylide]
MIC [1, 3]: ≤ 1 µg/mL | MIC [1, 4]: 2.5 µg/mL (≈ 6.46 µM) | MIC [2, 5]: ≤ 1 µg/mL | MIC [2, 6]: 2.5 µg/mL (≈ 6.46 µM)

CC1CC(=O)[C-]([I+]c2ccccc2[N+](=O)[O-])C(=O)C1 [Example 15, (2-Nitrophenyl)-iodonium 4-methyl-2,6-dioxocyclohexan-1-ylide]
MIC [1, 3]: 100 µg/mL (≈ 268 µM) | MIC [1, 4]: ≤ 10 µg/mL | MIC [2, 5]: ≤ 10 µg/mL | MIC [2, 6]: ≤ 10 µg/mL

Cc1ccc([I+][C-]2C(=O)OC(C)(C)OC2=O)c([N+](=O)[O-])c1 [Example 16, (4-Methyl-2-nitrophenyl)-iodonium 2,2-dimethyl-4,6-dioxo-1,3-dioxan-5-ylide]
MIC [1, 3]: 10 µg/mL (≈ 24.7 µM) | MIC [1, 4]: 2.5 µg/mL (≈ 6.17 µM) | MIC [2, 5]: 5 µg/mL (≈ 12.3 µM) | MIC [2, 6]: 2.5 µg/mL (≈ 6.17 µM)

Cc1ccc(I=C2C(=O)OC(C)(C)OC2=O)c([N+](=O)[O-])c1C [Example 17, (3,4-Dimethyl-2-nitrophenyl)-iodonium 2,2-dimethyl-4,6-dioxo-1,3-dioxan-5-ylide]
MIC (AEA) [1, 7]: 25 ppm | MIC (NEA) [1, 8]: 25 ppm | MIC (ABS) [2, 7]: < 10 ppm | MIC (NBS) [2, 8]: < 10 ppm

CC1(C)OC(=O)[C-]([I+]c2ccc(Cl)cc2[N+](=O)[O-])C(=O)O1 [Example 18, (4-chloro-2-nitrophenyl)-iodonium 2,2-dimethyl-4,6-dioxo-1,3-dioxan-5-ylide]
MIC [1, 3]: 250 µg/mL (≈ 587 µM) | MIC [1, 4]: 100 µg/mL (≈ 235 µM) | MIC [2, 5]: 250 µg/mL (≈ 587 µM) | MIC [2, 6]: 100 µg/mL (≈ 235 µM)

COc1ccc([I+][C-]2C(=O)OC(C)(C)OC2=O)c([N+](=O)[O-])c1 [Example 20, (4-Methoxy-2-nitrophenyl)-iodonium 2,2-dimethyl-4,6-dioxo-1,3-dioxan-5-ylide]
MIC [1, 3]: 25 µg/mL (≈ 59.4 µM) | MIC [1, 4]: ≤ 10 µg/mL | MIC [2, 5]: 25 µg/mL (≈ 59.4 µM) | MIC [2, 6]: ≤ 10 µg/mL

CC1(C)OC(=O)[C-]([I+]c2ccccc2S(C)(=O)=O)C(=O)O1 [Example 21, ((2-Methylsulfonyl)phenyl)-iodonium 2,2-dimethyl-4,6-dioxo-1,3-dioxan-5-ylide]
MIC [1, 3]: > 500 µg/mL | MIC [1, 4]: > 500 µg/mL | MIC [2, 5]: 50 µg/mL (≈ 118 µM) | MIC [2, 6]: 25 µg/mL (≈ 58.9 µM)

O=c1oc2ccc(F)cc2c(=O)[c-]1[I+]c1ccccc1[N+](=O)[O-] [Example 22, (2-Nitrophenyl)-iodonium 6-fluoro-3,4-dihydro-2,4-dioxo-2H-benzopyran-3-ylide]
MIC [1, 3]: 250 µg/mL (≈ 585 µM) | MIC [1, 4]: ≤ 10 µg/mL | MIC [2, 5]: 100 µg/mL (≈ 234 µM) | MIC [2, 6]: ≤ 10 µg/mL

O=c1oc2ccc(Br)cc2c(=O)[c-]1[I+]c1ccccc1[N+](=O)[O-] [Example 23, (2-Nitrophenyl)-iodonium 6-bromo-3,4-dihydro-2,4-dioxo-2H-benzopyran-3-ylide]
MIC [1, 3]: > 500 µg/mL | MIC [1, 4]: > 500 µg/mL | MIC [2, 5]: 250 µg/mL (≈ 512 µM) | MIC [2, 6]: 100 µg/mL (≈ 205 µM)

O=C(O)c1ccc2oc(=O)[c-]([I+]c3ccccc3[N+](=O)[O-])c(=O)c2c1 [Example 26, (2-Nitrophenyl)-iodonium 6-carboxy-3,4-diohydro-2,4-dioxo-2H -benzopyran-3-ylide]
MIC [1, 3]: 250 µg/mL (≈ 552 µM) | MIC [1, 4]: 250 µg/mL (≈ 552 µM) | MIC [2, 5]: 250 µg/mL (≈ 552 µM) | MIC [2, 6]: ≤ 10 µg/mL

CS(=O)(=O)c1ccccc1[I+][c-]1c(=O)oc2ccc(Cl)cc2c1=O [Example 27, ((2-Methylsulfonyl)phenyl)-iodonium 6-chloro-3,4-dihydro-2,4-dioxo-2H-benzopyran-3-ylide]
MIC [1, 3]: > 500 µg/mL | MIC [1, 4]: > 500 µg/mL | MIC [2, 5]: ≤ 10 µg/mL | MIC [2, 6]: ≤ 10 µg/mL

COc1ccc2oc(=O)[c-]([I+]c3ccccc3S(C)(=O)=O)c(=O)c2c1 [Example 28, ((2-Methylsulfonyl)phenyl)-iodonium 3,4-dihydro-6-methoxy-2,4-dioxo-2H-benzopyran-3-ylide]
MIC [1, 3]: > 500 µg/mL | MIC [1, 4]: > 500 µg/mL | MIC [2, 5]: ≤ 10 µg/mL | MIC [2, 6]: ≤ 10 µg/mL

CS(=O)(=O)c1ccccc1[I+][c-]1c(=O)oc2ccc(C(=O)O)cc2c1=O [Example 29, ((2-Methylsulfonyl)phenyl)-iodonium 6-carboxy-3,4-dihydro-2,4-dioxo-2H-benzopyran-3-ylide]
MIC [1, 3]: > 500 µg/mL | MIC [1, 4]: > 500 µg/mL | MIC [2, 5]: ≤ 10 µg/mL | MIC [2, 6]: ≤ 10 µg/mL

CS(=O)(=O)c1ccccc1[I+][c-]1c(=O)oc2ccc(Br)cc2c1=O [Example 30, ((2-Methylsulfonyl)phenyl)-iodonium 6-bromo-3,4-dihydro-2,4-dioxo-2H-benzopyran-3-ylide]
MIC [1, 3]: > 500 µg/mL | MIC [1, 4]: > 500 µg/mL | MIC [2, 5]: ≤ 10 µg/mL | MIC [2, 6]: ≤ 10 µg/mL

O=c1oc2ccccc2c(=O)[c-]1[I+]c1ccccc1[N+](=O)[O-] [Example 32, (2-Nitrophenyl)-iodonium 3,4-dihydro-2,4-dioxo-2H-benzopyran-3-ylide]
MIC [1, 3]: 25 µg/mL (≈ 61.1 µM) | MIC [1, 4]: ≤ 10 µg/mL | MIC [2, 5]: ≤ 10 µg/mL | MIC [2, 6]: ≤ 10 µg/mL

COc1ccc2oc(=O)[c-]([I+]c3ccccc3[N+](=O)[O-])c(=O)c2c1 [Example 33, (2-Nitrophenyl)-iodonium 3,4-dihydro-6-methoxy-2,4-dioxo-2H-benzopyran-3-ylide]
MIC [1, 3]: > 500 µg/mL | MIC [1, 4]: > 500 µg/mL | MIC [2, 5]: ≤ 10 µg/mL | MIC [2, 6]: ≤ 10 µg/mL

Cc1cccc2c(=O)[c-]([I+]c3ccccc3[N+](=O)[O-])c(=O)oc12 [Example 34, (2-Nitrophenyl)-iodonium 3,4-dihydro-8-methyl-2,4-dioxo-2H-benzopyran-3-ylide]
MIC [1, 3]: 500 µg/mL (≈ 1180 µM) | MIC [1, 4]: 500 µg/mL (≈ 1180 µM) | MIC [2, 5]: 25 µg/mL (≈ 59.1 µM) | MIC [2, 6]: ≤ 10 µg/mL

CCn1c(=O)[c-]([I+]c2ccccc2[N+](=O)[O-])c(=O)n(CC)c1=S [Example 36, (2-Nitrophenyl)-iodonium 1,3-diethylhexahydro-4,6-dioxo-2-thiopyrimidin-5-ylide]
MIC [1, 3]: > 500 µg/mL | MIC [1, 4]: 500 µg/mL (≈ 1120 µM) | MIC [2, 5]: > 500 µg/mL | MIC [2, 6]: > 500 µg/mL

O=c1[nH]c2ccccc2c(=O)[c-]1[I+]c1ccccc1[N+](=O)[O-] [Example 41, (2-Nitrophenyl)-iodonium 1,2,3,4-tetrahydro-2,4-dioxoquinolin-3-ylide]
MIC [1, 3]: > 500 µg/mL | MIC [1, 4]: ≤ 10 µg/mL | MIC [2, 5]: 500 µg/mL (≈ 1230 µM) | MIC [2, 6]: ≤ 10 µg/mL

CS(=O)(=O)c1ccccc1[I+][c-]1c(=O)cc[nH]c1=O [Example 42, ((2-Methylsulfonyl)phenyl)-iodonium 1,2,3,4-tetrahydro-2,4-dioxopyridine3-ylide]
MIC [1, 3]: > 500 µg/mL | MIC [1, 4]: 500 µg/mL (≈ 1280 µM) | MIC [2, 5]: 500 µg/mL (≈ 1280 µM) | MIC [2, 6]: 500 µg/mL (≈ 1280 µM)

O=c1cc[nH]c(=O)[c-]1[I+]c1ccccc1[N+](=O)[O-] [Example 43, (2-Nitrophenyl)-iodonium 1,2,3,4-tetrahydro-2,4-dioxopyridin-3-ylide]
MIC [1, 3]: > 500 µg/mL | MIC [1, 4]: 500 µg/mL (≈ 1400 µM) | MIC [2, 5]: 500 µg/mL (≈ 1400 µM) | MIC [2, 6]: 50 µg/mL (≈ 140 µM)

O=c1[nH]c(=O)[c-]([I+]c2ccccc2[N+](=O)[O-])c(=O)[nH]1 [Example 44, (2-Nitrophenyl)-iodonium hexahydro-2,4,6-trioxo-5-pyrimidin-1-ylide]
MIC [1, 3]: 500 µg/mL (≈ 1330 µM) | MIC [1, 4]: 100 µg/mL (≈ 267 µM) | MIC [2, 5]: > 500 µg/mL | MIC [2, 6]: 100 µg/mL (≈ 267 µM)

Cc1cc(=O)[c-]([I+]c2ccccc2S(C)(=O)=O)c(=O)o1 [Example 46, ((2-Methylsulfonyl)phenyl)-iodonium 3,4-dihydro-6-methyl-2,4-dioxo-2H-pyran-3-ylide]
MIC [1, 3]: 50 µg/mL (≈ 123 µM) | MIC [1, 4]: 100 µg/mL (≈ 246 µM) | MIC [2, 5]: ≤ 10 µg/mL | MIC [2, 6]: ≤ 10 µg/mL

(2-Nitrophenyl)-iodonium 3,4,5,6-tetrahydro-4,6-doxo-5-pyrimidinylide [Example 35]
MIC (AEA) [1, 7]: > 500 ppm
